According to patent publication US7026309B2, “Fused bicyclic pyridine derivative as tachykinin receptor antagonist” (Kyorin Pharmaceutical Co., Ltd., priority 2002, dated 2006):

Tests used:
NK1 receptor = target: T1, NK1 receptor (Cavia porcellus, UniProt P30547); experiment: Test for NK1 receptor antagonist: substance P concentration-response in isolated guinea pig ileum, Schild analysis; type: cell-based; conditions: substance P as agonist, 10 min pretreatment, method of Schild
T1 construct: from tissue; host or cells: isolated guinea pig ileum
Protocol: (1) Test for NK1 Receptor Antagonist
The method used was according to the method proposed by S. Dion et al. (Dion et al., Life Sciences 41(1987): 2269), to which minor modifications were made.
Guinea pigs were stunned by a blow on the head and were exsanguinated from the carotid artery and ilea were isolated. The ileum was mounted in an organ bath containing Tyrode's solution which was maintained at 32° C. and gased with 95% O2 and 5% CO2. The ileum was subjected to a resting tension of 1-gram and allowed to equilibrate for 20 minutes before the experiment was started. As a control, a concentration-response curve for substance P in the absence of any of test compounds was used. The NK1 receptor antagonist activity of each test compound was determined by a concentration-response curve obtained by pretreating at least three concentrations of the test compound for 10 minutes and subsequently applying substance P in a cumulative manner. The Kb values were determined according to the method of Schild and the results are shown in Table 1 (Schild Brit. J. Pharmacol. 14(1959): 48).
The composition of the Tyrode's solution was as follows: NaCl=136.9, KCl=2.7, CaCl2.2H2O=2.5, MgCl2.6H2O=1.0, NaH2PO4.2H2O=0.4, NaHCO3=11.9, glucose=11.1 (mmol/L).

[1] = tested on: effective bladder capacity; experiment: Cystometry test on guinea pigs with cut spinal cord; type: in vivo; conditions: guinea pig
Description: (2) Cystometry Test on Guinea Pigs
The method used was according to the method proposed by JS. Peterson et al. (Peterson J S. et al., J. Pharmacol. Methods 21(1989): 231), to which minor modifications were made.
Guinea pigs were anesthetized with halothane and the tenth thoracic spinal cord was cut in each animal. Subsequently, both ureters were ligated and were cut on the kidney-side. Polyethylene catheters were inserted into the bladder to provide an injection pathway for physiological saline and a pathway for the measurement of intravesical pressure. Each animal was restricted in a Ballman cage and was left for more than 2 hours. Subsequently, room-temperature saline was injected through the bladder catheter into the bladder at a rate of 6 mL/hr to conduct a cystometry test. Once the effective bladder capacity was stabilized, a test compound was intravenously administered into the jugular vein. The effective bladder capacity is defined as the volume of saline injected from one urination to the next. The effect of each test compound was determined as the increase in the average bladder volume, which was determined based on the average bladder volume measured 30 minutes prior to the administration of the test compound and the average bladder volume measured every 30 minutes after the administration of the test compound.

T1 sequence (P30547 whole entry): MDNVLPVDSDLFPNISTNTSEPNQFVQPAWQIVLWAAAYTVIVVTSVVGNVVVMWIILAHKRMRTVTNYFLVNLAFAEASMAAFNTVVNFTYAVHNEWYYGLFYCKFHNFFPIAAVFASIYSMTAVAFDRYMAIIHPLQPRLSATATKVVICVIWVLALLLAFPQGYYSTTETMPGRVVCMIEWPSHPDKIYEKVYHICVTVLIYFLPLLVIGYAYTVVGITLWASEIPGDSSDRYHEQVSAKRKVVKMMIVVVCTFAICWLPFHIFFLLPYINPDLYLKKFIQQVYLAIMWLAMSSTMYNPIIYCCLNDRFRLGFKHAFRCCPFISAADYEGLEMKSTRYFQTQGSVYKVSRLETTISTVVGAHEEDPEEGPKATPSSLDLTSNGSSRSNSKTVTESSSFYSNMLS

Question: For `CC(=O)N1CCN(c2cc(-c3ccccc3C)c3c(n2)OCCCN(Cc2cc(C(F)(F)F)cc(C(F)(F)F)c2)C3=O)CC1` [Example 1, 9-(4-acetylpiperazine-1-yl)-5-[3,5-bis(trifluoromethyl)benzyl]-7-(2-methylphenyl)-6-oxo-2,3,4,5-tetrahydro-6H-pyrido[2,3-b][1,5]oxazocine], which Kb (NK1 receptor) is on record?
Answer: Its Kb is 0.0888 nM.

Question: What about the “Increase in bladder capacity (%)” value ([1]; 0.3 mg/kg i.v.) of the same compound?
Answer: The value was 32.2%.

Question: How did the Kb (NK1 receptor) turn out when `CC(=O)N1CCN(c2cc(-c3ccc(F)cc3)c3c(n2)OCCCN(Cc2cc(C(F)(F)F)cc(C(F)(F)F)c2)C3=O)CC1` [Example 2, 9-(4-acetylpiperazine-1-yl)-5-[3,5-bis(trifluoromethyl)benzyl]-7-(4-fluorophenyl)-6-oxo-2,3,4,5-tetrahydro-6H-pyrido[2,3-b][1,5]oxazocine] was run?
Answer: The Kb was 0.0847 nM.

Question: For `CC(=O)N1CCCN(c2cc(-c3ccccc3C)c3c(n2)OCCCN(Cc2cc(C(F)(F)F)cc(C(F)(F)F)c2)C3=O)CC1` [Example 6, 9-(4-acetylhomopiperazine-1-yl)-5-[3,5-bis(trifluoromethyl)benzyl]-7-(2-methylphenyl)-6-oxo-2,3,4,5-tetrahydro-6H-pyrido[2,3-b][1,5]oxazocine], which Kb (NK1 receptor) is on record?
Answer: Its Kb is 0.294 nM.

Question: For `Cc1ccc(-c2c3n(c(=O)c4ncccc24)CC[C@@H](C)CN(Cc2cc(C(F)(F)F)cc(C(F)(F)F)c2)C3=O)cc1` [TAK-637], which Kb (NK1 receptor) is on record?
Answer: Its Kb is 0.269 nM.

Question: What about the “Increase in bladder capacity (%)” value ([1]; 0.3 mg/kg i.v.) of the same compound?
Answer: Its value is 12.0%.

Question: What about the “Increase in bladder capacity (%)” value ([1]; 1 mg/kg i.v.) of the same compound?
Answer: The value was 23.8%.

Question: And the “Increase in bladder capacity (%)” value ([1]; 3 mg/kg i.v.)?
Answer: Its value is 20.5%.
